Columns and labels:
[1] = Solubility of the crystals in ethyl acetate solvent (reslurry, content of supernatant solution); type: physicochemical
Method: Solubility of RS-Trolox⋅R-PEA, R-Trolox⋅R-PEA, and S-Trolox⋅R-PEA to Ethyl Acetate Solvent
Each crystal was reslurried by adding ethyl acetate. The solubility was calculated from analyzing the content of supernatant solution of each reaction solution at each temperature.

[2] = Solubility of the crystals in amide-based solvents NMP and DMA (reslurry, content of supernatant solution); type: physicochemical; settings: 20 °C
Method: Solubility of R-Trolox⋅R-PEA, S-Trolox⋅R-PEA, and S-Trolox to NMP and DMA
Each crystal was reslurried by adding an amide-based solvent (NMP, DMA). The solubility was calculated from analyzing the content of supernatant solution of each reaction solution at each temperature.

## C[C@@H](N)c1ccccc1.Cc1c(C)c2c(c(C)c1O)CCC(C)(C(=O)O)O2 (racemic) [rac-Trolox]
[1]; 0 °C
  Solubility to ethyl acetate solvent: 0.02%
[1]; 15 °C
  Solubility to ethyl acetate solvent: 0.02%
[1]; 30 °C
  Solubility to ethyl acetate solvent: 0.07%
[1]; 45 °C
  Solubility to ethyl acetate solvent: 0.38%
[1]; 60 °C
  Solubility to ethyl acetate solvent: 1.08%
[1]; 75 °C
  Solubility to ethyl acetate solvent: 2.82%

## Cc1c(C)c2c(c(C)c1O)CC[C@](C)(C(=O)O)O2 [R-Trolox]
[2]
  Solubility [%] DMA: 0.4%
  Solubility [%] NMP: 0.5%
[1]; 0 °C
  Solubility to ethyl acetate solvent: 0.07%
[1]; 15 °C
  Solubility to ethyl acetate solvent: 0.09%
[1]; 30 °C
  Solubility to ethyl acetate solvent: 0.10%
[1]; 45 °C
  Solubility to ethyl acetate solvent: 0.40%
[1]; 60 °C
  Solubility to ethyl acetate solvent: 0.78%
[1]; 75 °C
  Solubility to ethyl acetate solvent: 0.83%

## Cc1c(C)c2c(c(C)c1O)CC[C@@](C)(C(=O)O)O2 [S-Trolox (Free), (S)-6-hydroxy-2,5,7,8-tetramethylchroman-2-carboxylic acid]
[2]
  Solubility [%] DMA: ≥10%
  Solubility [%] NMP: ≥10%

## C[C@@H](N)c1ccccc1.Cc1c(C)c2c(c(C)c1O)CC[C@@](C)(C(=O)O)O2 [S-Trolox]
[2]
  Solubility [%] DMA: ≥10%
  Solubility [%] NMP: ≥10%
[1]; 0 °C
  Solubility to ethyl acetate solvent: 2.6%
[1]; 15 °C
  Solubility to ethyl acetate solvent: 9.9%
[1]; 30 °C
  Solubility to ethyl acetate solvent: 14.2%

— patent US12509434B2, “Optically resolved Trolox intermediate and method for producing same” (PTC THERAPEUTICS, INC., priority 2020, dated 2025)
